In the supplement of paper PMC11451515:

Test system: P12-Ichikawa
Assay: cell viability relative to DMSO control; higher = less cytotoxic
Details: 48 h
Outline: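 Viability, reported as a per-plate percentage of DMSO wells with cell-free wells as background, came from CellTiter-Glo One luminescence. Reading took place after 48 h at 37°C. Before that, NOMO1 or SEM (500 cells/well) or P12-Ichikawa (1000 cells/well) leukemia cells, adapted for at least four passages in each medium, were seeded in 1536-well plates (5 μl) and pin-dosed with library compounds in DMSO, 47 μM to 0.79 nM over 11 threefold points.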

[1] = HPLM + 10% dialyzed FBS, 0.000781 µM
[2] = HPLM + 10% dialyzed FBS, 0.00234 µM
[3] = HPLM + 10% dialyzed FBS, 0.00702 µM
[4] = HPLM + 10% dialyzed FBS, 0.0211 µM
[5] = HPLM + 10% dialyzed FBS, 0.0632 µM
[6] = HPLM + 10% dialyzed FBS, 0.19 µM
[7] = HPLM + 10% dialyzed FBS, 0.569 µM
[8] = HPLM + 10% dialyzed FBS, 1.71 µM
[9] = HPLM + 10% dialyzed FBS, 5.12 µM
[10] = HPLM + 10% dialyzed FBS, 15.4 µM
[11] = HPLM + 10% dialyzed FBS, 46.1 µM
[12] = RPMI 5 mM glucose + 10% FBS, 0.000781 µM
[13] = RPMI 5 mM glucose + 10% FBS, 0.00234 µM
[14] = RPMI 5 mM glucose + 10% FBS, 0.00702 µM
[15] = RPMI 5 mM glucose + 10% FBS, 0.0211 µM
[16] = RPMI 5 mM glucose + 10% FBS, 0.0632 µM
[17] = RPMI 5 mM glucose + 10% FBS, 0.19 µM
[18] = RPMI 5 mM glucose + 10% FBS, 0.569 µM
[19] = RPMI 5 mM glucose + 10% FBS, 1.71 µM
[20] = RPMI 5 mM glucose + 10% FBS, 5.12 µM
[21] = RPMI 5 mM glucose + 10% FBS, 15.4 µM
[22] = RPMI 5 mM glucose + 10% FBS, 46.1 µM
[23] = RPMI 5 mM glucose + 10% dialyzed FBS, 0.000781 µM
[24] = RPMI 5 mM glucose + 10% dialyzed FBS, 0.00234 µM
[25] = RPMI 5 mM glucose + 10% dialyzed FBS, 0.00702 µM
[26] = RPMI 5 mM glucose + 10% dialyzed FBS, 0.0211 µM
[27] = RPMI 5 mM glucose + 10% dialyzed FBS, 0.0632 µM
[28] = RPMI 5 mM glucose + 10% dialyzed FBS, 0.19 µM
[29] = RPMI 5 mM glucose + 10% dialyzed FBS, 0.569 µM
[30] = RPMI 5 mM glucose + 10% dialyzed FBS, 1.71 µM
[31] = RPMI 5 mM glucose + 10% dialyzed FBS, 5.12 µM
[32] = RPMI 5 mM glucose + 10% dialyzed FBS, 15.4 µM
[33] = RPMI 5 mM glucose + 10% dialyzed FBS, 46.1 µM

Compound | cell viability [1] [%] | cell viability [2] [%] | cell viability [3] [%] | cell viability [4] [%] | cell viability [5] [%] | cell viability [6] [%] | cell viability [7] [%] | cell viability [8] [%] | cell viability [9] [%] | cell viability [10] [%] | cell viability [11] [%] | cell viability [12] [%] | cell viability [13] [%] | cell viability [14] [%] | cell viability [15] [%] | cell viability [16] [%] | cell viability [17] [%] | cell viability [18] [%] | cell viability [19] [%] | cell viability [20] [%] | cell viability [21] [%] | cell viability [22] [%] | cell viability [23] [%] | cell viability [24] [%] | cell viability [25] [%] | cell viability [26] [%] | cell viability [27] [%] | cell viability [28] [%] | cell viability [29] [%] | cell viability [30] [%] | cell viability [31] [%] | cell viability [32] [%] | cell viability [33] [%]
COc1cc2c(cc1-c1c(C)noc1C)ncc1[nH]c(=O)n([C@H](C)c3ccccn3)c12 | 107 | 109 | 111 | 111 | 115 | 105 | 103 | 86.2 | 44.2 | 48.9 | 12.2 | 107 | 110 | 101 | 111 | 115 | 99.2 | 110 | 92.1 | 48.3 | 48.5 | 23.1 | 112 | 106 | 109 | 104 | 105 | 105 | 101 | 90.2 | 52.4 | 48.6 | 22.4
Cc1ccccc1N1C(=O)c2cc([S+](N)(=O)[O-])c(Cl)cc2NC1C (centres undefined) | 134 | 121 | 119 | 132 | 125 | 125 | 109 | 120 | 119 | 103 | 110 | 122 | 121 | 131 | 129 | 137 | 134 | 130 | 124 | 109 | 98.3 | 129 |  |  |  |  |  |  |  |  |  |  | 
FC(F)(F)c1ccc(/C=C/c2nc(COc3ccc(CCCCn4ccnn4)cc3)co2)cc1 | 119 | 124 | 110 | 97.3 | 88 | 86.9 | 83.4 | 85.6 | 40.4 | 35.6 | 81.6 |  |  |  |  |  |  |  |  |  |  |  |  |  |  |  |  |  |  |  |  |  | 
CNC1CCC(N(Cc2cccc(-c3ccncc3)c2)C(=O)c2sc3ccccc3c2Cl)CC1 (centres undefined) | 96.9 | 102 | 107 | 99.9 | 97.3 | 99.7 | 107 | 13.8 | 4.58 | 1.97 | 0.291 | 89.2 | 92.9 | 91.4 | 96.6 | 94.5 | 94.8 | 102 | 61.3 | 4.21 | 3.93 | 1.13 | 79.1 | 86.1 | 86.9 | 95.8 | 86.2 | 94.4 | 97.1 | 44.7 | 4.4 | 3.5 | 0.803
